# Laboratory results as given in patent publication US7598234B2, “Steroid derived antibiotics” (Brigham Young University, priority 1998, dated 2009).
# Columns and labels:
# Gram-negative bacteria = assay: Sensitization to erythromycin, ester and amide side chain compounds (Table 14); format: cell-based; settings: in words; compared with Table 14 compounds
# Protocol: (§1) Aliquots of 1 mL of the suspension were added to test tubes containing 1 mL TSB and incrementally varied concentrations of cholic acid derivatives and/or erythromycin or novobiocin. In the sensitization experiments, erythromycin or novobiocin were added 15 minutes later than the cholic acid derivatives. The samples were subjected to stationary incubation at 37° C. for 24 hours. Sample turbidity was determined by measuring absorption at 760 nm (HP 8453 UV-Visible Chemstation, Hewlett Packard). Additionally, an alliquot from each of the samples showing no measurable turbidity was subcultured on TSA plates (alliquots were diluted to provide fewer than 300 CFU). Colonies that grew on the subculture after overnight incubation were counted and the number of CFU/mL in the samples were calculated. The calculated values were compared to the number of CFU/mL in the original inoculum.
# (§2) Ability to permeabilize outer membrane: Compounds 11, 106, and 108-114 (FIG. 1) were tested for antibiotic activity. They were also tested for the ability to permeabilize the outer membrane of Gram-negative bacteria, causing sensitization to hydrophobic antibiotics that cannot cross the outer membrane. The permeabilization of the outer membrane was measured using erythromycin and novobiocin.
# Ester and amide side chains: Additional compounds, for example, compounds with amide and ester side chains, were tested.
# E. coli (ATCC 25922) [1] = assay: Sensitization to erythromycin, E. coli (ATCC 25922); format: cell-based, Escherichia coli
# Protocol: FICs can be performed by checkerboard titrations of compounds in one dimension of a microtiter plate, and of antibiotics in the other dimension, for example. The FIC is calculated by looking at the impact of one antibiotic on the MIC of the other and vice versa. […] Preferably, an FIC of less than 0.5 is obtained for synergism. As used herein, FIC can be determined as follows:
# as §1
# Concentrations of 0.5, 1.0 or 3.0 μg/mL of these antibiotics were used, and the concentrations of the cholic acid derivatives required to inhibit bacterial growth of Gram-negative strains were determined.
# (§3) Minimum inhibition concentrations (MIC) and minimum hemolytic concentrations (MHC) were measured as described in Li et al., Antimicrob. Agents. Chemother., 1999, 43, 1347.
# [2] = system: Pseudomonas aeruginosa (ATCC 27853); assay: MIC and MBC measurement with Pseudomonas aeruginosa (ATCC 27853); format: cell-based
# Excerpt: (§4) General: Microorganisms. Reference strains were purchased from the American Type Culture Collection (Rockville, Md.) or Bactrol disks from Difeo Laboratories (Detroit, Mich.). The following specific ATCC strains were used: 10798 Escherichia coli, 25922 Escherichia coli, 13883 Klebsiella pneumoniae, 27853 Pseudomonas aeruginosa, 14028 Salmonella typhimurium, 29212 Enterococcus faecalis, 25923 Staphylococcus aureus, 19615 Streptococcus pyogenes, and 90028 Candida albicans. Bacterial strains were maintained on Mueller-Hinton agar plates, and Candida albicans was maintained on Sabouraud Dextrose agar plates.
# (§5) Tryptic soy broth (TSB) was made by dissolving 27.5 grams of tryptic soy broth without dextrose (DIFCO Laboratories) in 1 liter of deionized water and sterilizing at 121° C. for 15 minutes. Solid agar (TSA) plates were made by dissolving 6.4 grams of tryptic soy broth and 12 grams of agar (purified grade, Fischer Scientific) in 800 mL of deionized water and sterilizing at 121° C. for 20 minutes. Aliquots (20 mL) of the homogeneous solution were then poured in sterile plastic petri dishes (100×15 mm, Fisher Scientific). Solutions of compounds were made by dissolving the HCl salt of the respective compound into an appropriate amount of deionized and sterilized water followed by microfiltration.
# as §1
# [3] = system: Pseudomonas aeruginosa (ATCC 27853); assay: Sensitization to erythromycin, Pseudomonas aeruginosa (ATCC 27853); format: cell-based
# Protocol: (§6) Alternatively, “fractional inhibitory concentration (FIC)” is also useful for determination of synergy between the compounds of the invention, or the compounds in combination with known antibiotics. FICs can be performed by checkerboard titrations of compounds in one dimension of a microtiter plate, and of antibiotics in the other dimension, for example. The FIC is calculated by looking at the impact of one antibiotic on the MIC of the other and vice versa. […] Preferably, an FIC of less than 0.5 is obtained for synergism. As used herein, FIC can be determined as follows:
# as §1, with “inoculum. […]” for “inoculum.”
# (§7) To measure permeabilization, the FIC values for compounds 1, 2, 5, 106, 10, 112, 133, and 134 with erythromycin, novobiocin, and rifampicin were determined. Concentrations of 0.5, 1.0 or 3.0 μg/mL of these antibiotics were used, and the concentrations of the cholic acid derivatives required to inhibit bacterial growth of Gram-negative strains were determined.
# [4] = system: Pseudomonas aeruginosa (ATCC 27853); assay: Sensitization to novobiocin, Pseudomonas aeruginosa (ATCC 27853); format: cell-based; settings: Table 8; P. aureginosa (ATCC 27853)
# Protocol: as §6
# as §1, with “inoculum. […]” for “inoculum.”
# as §7
# E. coli (ATCC 10798) [5] = assay: Sensitization to novobiocin (concentration lowering the MIC of novobiocin), E. coli (ATCC 10798); format: cell-based, Escherichia coli; settings: Table 3, E. coli (ATCC 10798)
# Protocol: as §6, §1, §2
# (§8) The MICs of erythromycin and novobiocin against E. coli (ATCC 10798) at 70 and >500 μg/mL were measured.
# E. coli (ATCC 25922) [6] = assay: MIC and MBC measurement with E. coli (ATCC 25922); format: cell-based, Escherichia coli
# Excerpt: as §4, §5
# as §1, with “inoculum. […]” for “inoculum.”
# E. coli (ATCC 10798) [7] = assay: Sensitization to erythromycin (concentration lowering the MIC of erythromycin), E. coli (ATCC 10798); format: cell-based, Escherichia coli; settings: Table 2, E. coli (ATCC 10798)
# Protocol: as §6, §1, §2, §8
# E. coli (ATCC 10798) [8] = assay: MIC and MBC measurement with E. coli (ATCC 10798); format: cell-based, Escherichia coli
# Excerpt: as §4, §5, §1
# [9] = system: Staphylococcus aureus ATCC 25923; assay: MIC and MBC measurement with Staphylococcus aureus ATCC 25923; format: cell-based
# Excerpt: as §4, §5
# as §1, with “inoculum. […]” for “inoculum.”
# [10] = system: Candida albicans ATCC 90028; assay: MIC and MBC measurement with Candida albicans ATCC 90028; format: cell-based; settings: Table 10
# Excerpt: as §4, §5, §1
# [11] = system: Salmonella typhimurium ATCC 14028; assay: MIC and MBC measurement with Salmonella typhimurium ATCC 14028; format: cell-based; settings: Table 10
# Excerpt: as §4, §5, §1
# [12] = system: Enterococcus faecalis ATCC 29212; assay: MIC and MBC measurement with Enterococcus faecalis ATCC 29212; format: cell-based; settings: Table 10
# Excerpt: as §4, §5, §1
# [13] = system: Streptococcus pyrogenes ATCC 19615; assay: MIC and MBC measurement with Streptococcus pyogenes ATCC 19615; format: cell-based; settings: Table 10
# Excerpt: as §4, §5, §1
# [14] = system: Klebsiella pneumonia ATCC 13883; assay: MIC and MBC measurement with Klebsiella pneumoniae ATCC 13883; format: cell-based; settings: Table 10
# Excerpt: as §4, §5, §1
# [15] = Protocol: as §3
# [16] = Table 6, P. aureginosa (ATCC 27853)
# [17] = Table 10, Staphylococcus aureus ATCC 25923
# [18] = Table 10, Pseudomonas aeruginosa ATCC 27853
# [19] = Table 10, Escherichia coli ATCC 25922
smiles,measurement,setting,value
C[C@H](CCCO)[C@H]1CC[C@H]2[C@@H]3[C@H](N)C[C@@H]4C[C@H](N)CC[C@]4(C)[C@H]3C[C@H](N)[C@]12C [Compound 206],activity as a permeabilizer,Gram-negative bacteria,ineffective as a permeabilizer
C[C@H](CCCN(C)Cc1ccccc1)[C@H]1CC[C@H]2[C@@H]3[C@H](OCCNC(=N)N)C[C@@H]4C[C@H](OCCNC(=N)N)CC[C@]4(C)[C@H]3C[C@H](OCCNC(=N)N)[C@]12C [Compound 4],MIC: concentration required to lower the MIC of erythromycin from 60 μg/mL to 1 μg/mL,"E. coli (ATCC 25922) [1]; Table 5, E. coli (ATCC 25922)",1 µg/mL
same,MBC (with erythromycin),"E. coli (ATCC 25922) [1]; Table 5, E. coli (ATCC 25922), erythromycin sensitization",5 µg/mL
same,MBC,[2]; [16],40 µg/mL
same,MIC,[2]; [16],15 µg/mL
same,MIC: concentration required to lower the MIC of erythromycin from 240 μg/mL to 5 μg/mL,"[3]; Table 7, P. aureginosa (ATCC 27853)",5 µg/mL
same,MBC (with erythromycin),"[3]; Table 7, P. aureginosa (ATCC 27853), erythromycin sensitization",40 µg/mL
same,MIC: concentration required to lower the MIC of novobiocin from >500 μg/mL to 1 μg/mL,[4],6 µg/mL
same,MIC: concentration required to lower the MIC of novobiocin from >500 μg/mL to 1 μg/mL,E. coli (ATCC 10798) [5],5 µg/mL
same,MBC (with novobiocin),E. coli (ATCC 10798) [5]; novobiocin sensitization,10 µg/mL
same,MBC,"E. coli (ATCC 25922) [6]; Table 4, E. coli (ATCC 25922)",9 µg/mL
same,MIC,"E. coli (ATCC 25922) [6]; Table 4, E. coli (ATCC 25922)",6 µg/mL
same,MIC: concentration required to lower the MIC of erythromycin from 70 μg/mL to 1 μg/mL,E. coli (ATCC 10798) [7],1.5 µg/mL
same,MBC (with erythromycin),E. coli (ATCC 10798) [7]; erythromycin sensitization,10 µg/mL
same,MBC,"E. coli (ATCC 10798) [8]; Table 1, E. coli (ATCC 10798)",10 µg/mL
same,MIC,"E. coli (ATCC 10798) [8]; Table 1, E. coli (ATCC 10798)",5 µg/mL
CCCCCCCCNCCC[C@@H](C)[C@H]1CC[C@H]2[C@@H]3[C@H](OCCCNC(=N)N)C[C@@H]4C[C@H](OCCCNC(=N)N)CC[C@]4(C)[C@H]3C[C@H](OCCCNC(=N)N)[C@]12C [Compound 134],MBC,[9]; [17],1.4 µg/mL
same,MIC,[9]; [17],0.59 µg/mL
same,MBC,[10],76 µg/mL
same,MIC,[10],53 µg/mL
same,FIC,"E. coli (ATCC 25922) [1]; Table 11, Escherichia coli ATCC 25922, erythromycin (by order)",0.36
same,concentration required to inhibit bacterial growth with antibiotic,"E. coli (ATCC 25922) [1]; Table 11, Escherichia coli ATCC 25922, erythromycin (by order) at 0.5, 1.0 or 3.0 μg/mL",0.37 µg/mL
same,MBC,[11],1.8 µg/mL
same,MIC,[11],0.81 µg/mL
same,MBC,[12],5.8 µg/mL
same,MIC,[12],3.0 µg/mL
same,MBC,[2]; [18],2.9 µg/mL
same,MIC,[2]; [18],2.0 µg/mL
same,MBC,[13],3.5 µg/mL
same,MIC,[13],3.5 µg/mL
same,FIC,"[3]; Table 11, Pseudomonas aeruginosa ATCC 27853, erythromycin (by order)",0.42
same,concentration required to inhibit bacterial growth with antibiotic,"[3]; Table 11, Pseudomonas aeruginosa ATCC 27853, erythromycin (by order) at 0.5, 1.0 or 3.0 μg/mL",0.70 µg/mL
same,MBC,[14],3.0 µg/mL
same,MIC,[14],0.84 µg/mL
same,MHC,[15],9.0 µg/mL
same,MBC,E. coli (ATCC 25922) [6]; [19],0.37 µg/mL
same,MIC,E. coli (ATCC 25922) [6]; [19],0.31 µg/mL
same,MIC (in words),"E. coli (ATCC 10798) [8]; FIG. 5, strain not named",very low
C[C@H](CCC(=O)O)[C@H]1CC[C@H]2[C@@H]3[C@H](OC(=O)CN)C[C@@H]4C[C@H](OC(=O)CN)CC[C@]4(C)[C@H]3C[C@H](OC(=O)CN)[C@]12C [Compound 327],MIC (MIC^a),"[9]; Table 16, S. aureus (ATTC 25923)",>100 µg/mL
same,c: concentration required to lower the MIC of erythromycin from 36 to 1 μg/mL,"E. coli (ATCC 25922) [1]; Table 16, E. coli",>100 µg/mL
same,MHC (minimum hemolytic concentration),[15],>100 µg/mL
same,MIC (MIC^b),"E. coli (ATCC 25922) [6]; Table 16, E. coli (ATTC 25922)",>100 µg/mL
